Data set [1] addresses T1, Multidrug resistance-associated protein 1 (Homo sapiens, UniProt P33527). The data set is described as follows: Inhibition of MRP1 (unknown origin) expressed in BHK21 cells assessed as GSH efflux at 20 uM incubated for 3 hrs measured every 30 secs for 2 mins by GSH reductase enzyme based assay (reference value: 100%). Format: cell-based. As to conditions: 3 h, 20 µM.
The test system of data set [2] is BHK-21. As to the kind of experiment: Cytotoxicity against MRP1-expressing BHK21 cells assessed as cell death after 72 hrs by MTT assay. As to conditions: Mesocricetus auratus, BHK-21, 72 h. The data set is classed as functional, cell-based. (In general: Formazan colour is commonly taken as a measure of viable cells.)
The next data set has as its target MRP1 (Homo sapiens, UniProt P33527). As to the kind of experiment: Inhibition of MRP1 (unknown origin) expressed in HEK293FlpIN cells assessed as reduction in calcein-AM efflux at 20 uM incubated for 30 mins by flow cytometric analysis relative to control. Format: cell-based. Conditions: HEK293FlpIN cells expressing MRP1, probe calcein-AM.
The subject of data set [3] is NIH3T3. As to the kind of experiment: Cytotoxicity against mouse NIH/3T3 cells assessed as reduction in cell viability at 20 uM after 72 hrs by MTT assay. Format: cell-based. Conditions: nih3t3, 72 h.
Another data set has as its target T2, BCRP (ABCG2) (Homo sapiens, UniProt Q9UNQ0).
T2 sequence (Q9UNQ0 whole entry): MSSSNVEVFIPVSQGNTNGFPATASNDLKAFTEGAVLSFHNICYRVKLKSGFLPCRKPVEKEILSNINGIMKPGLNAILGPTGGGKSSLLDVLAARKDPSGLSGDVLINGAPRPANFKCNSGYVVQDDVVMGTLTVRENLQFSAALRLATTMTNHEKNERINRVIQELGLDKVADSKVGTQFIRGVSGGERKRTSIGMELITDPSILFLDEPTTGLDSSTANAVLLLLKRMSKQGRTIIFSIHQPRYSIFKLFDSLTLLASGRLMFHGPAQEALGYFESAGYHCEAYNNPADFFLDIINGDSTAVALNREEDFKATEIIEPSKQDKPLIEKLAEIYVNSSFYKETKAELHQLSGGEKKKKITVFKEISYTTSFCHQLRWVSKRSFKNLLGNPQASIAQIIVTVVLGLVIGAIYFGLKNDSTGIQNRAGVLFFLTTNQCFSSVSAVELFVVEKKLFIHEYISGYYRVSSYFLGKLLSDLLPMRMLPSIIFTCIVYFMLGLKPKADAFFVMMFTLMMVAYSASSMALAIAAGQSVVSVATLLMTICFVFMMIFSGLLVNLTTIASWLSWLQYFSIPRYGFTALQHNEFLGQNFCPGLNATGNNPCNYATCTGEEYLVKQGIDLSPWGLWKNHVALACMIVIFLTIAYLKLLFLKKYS
As to the kind of experiment: Inhibition of BCRP (unknown origin) expressed in HEK293 cells assessed as reduction in mitoxantrone efflux at 20 uM incubated for 30 mins by flow cytometric analysis relative to control. The data set is classed as cell-based. As to conditions: HEK293 cells expressing BCRP, probe mitoxantrone.

The test system of data set [4] is BHK-21. The data set is described as follows: Cytotoxicity against wild type BHK21 cells assessed as reduction in cell viability at 20 uM after 72 hrs by MTT assay. The data set is classed as cell-based, Mesocricetus auratus. Conditions: hamster, bhk-21, 72 h.
A short description of data set [5]: Inhibition of P-gp (unknown origin) expressed in mouse NIH/3T3 cells assessed as reduction in rhodamine 123 efflux at 20 uM incubated for 30 mins by flow cytometric analysis relative to control. The data set is classed as cell-based. As to conditions: Homo sapiens. (In flow cytometry, cells or beads pass a laser one at a time.)
Data set [6] deals with NIH3T3. As to the kind of experiment: Cytotoxicity against MDR1-expressing mouse NIH/3T3 cells assessed as growth inhibition at 20 uM after 72 hrs by MTT assay. Format: functional, cell-based.
Data set [7] deals with BHK-21. The data set is described as follows: Resistance ratio of EC50 for MRP1-expressing BHK21 cells to EC50 for wild type BHK21 cells. Format: functional, Mesocricetus auratus.
For data set [8], the system named is BHK-21. The data set is described as follows: Cytotoxicity against MRP1-expressing BHK21 cells assessed as growth inhibition at 20 uM after 72 hrs by MTT assay. The data set is classed as functional. As to conditions: Mesocricetus auratus; for inhibition of growth at 20 µM: BHK-21, 72 h, read-out: GI.
A short description of data set [9]: Cytotoxicity against HEK293FlpIN cells assessed as reduction in cell viability at 10 to 20 uM after 72 hrs by MTT assay. Format: cell-based. As to conditions: human.
Data set [10] deals with T1, Multidrug resistance-associated protein 1. The data set is described as follows: Inhibition of MRP1 (unknown origin) expressed in HEK293FlpIN cells assessed as reduction in calcein-AM efflux incubated for 30 mins by flow cytometric analysis. The data set is classed as cell-based. As to conditions: for inhibition (INH): human, 0.5 h.
The species entered for data set [11] is Homo sapiens. As to the kind of experiment: Cytotoxicity against MRP1-expressing HEK293FlpIN cells assessed as reduction in cell viability at 10 to 20 uM after 72 hrs by MTT assay. The data set is classed as functional, cell-based.
Data set [12] deals with T1, Multidrug resistance-associated protein 1. As to the kind of experiment: Inhibition of MRP1 (unknown origin) expressed in HEK293FlpIN cells assessed as potentiation of vincristine-induced cytotoxicity by measuring decrease in cell growth at 10 to 20 uM after 72 hrs by MTT assay relative to control. Further details: scale not given: the % may be the effect or the level left. The data set is classed as cell-based.

Data set [13] is filed under the species Homo sapiens. As to the kind of experiment: Inhibition of P-gp (unknown origin) expressed in mouse NIH/3T3 cells assessed as reduction in rhodamine 123 efflux at 10 uM incubated for 30 mins by flow cytometric analysis relative to control. Format: cell-based.
For data set [14], the species on record is Homo sapiens. The data set is described as follows: Inhibition of P-gp (unknown origin) expressed in mouse NIH/3T3 cells assessed as reduction in rhodamine 123 efflux at 1 uM incubated for 30 mins by flow cytometric analysis relative to control. The data set is classed as cell-based.
The species entered for data set [15] is Homo sapiens. As to the kind of experiment: Inhibition of P-gp (unknown origin) expressed in mouse NIH/3T3 cells assessed as potentiation of paclitaxel-induced cytotoxicity by measuring decrease in cell viability at 10 uM after 72 hrs by MTT assay. The data set is classed as cell-based.
Data set [16] is filed under the species Homo sapiens. As to conditions: 5 uM.
Description: Inhibition of P-gp (unknown origin) expressed in mouse NIH/3T3 cells assessed as reduction in rhodamine 123 efflux at 5 uM incubated for 30 mins by flow cytometric analysis relative to control
The species entered for data set [17] is Homo sapiens. As to the kind of experiment: Inhibition of P-gp (unknown origin) expressed in mouse NIH/3T3 cells assessed as potentiation of paclitaxel-induced cytotoxicity by measuring decrease in cell viability at 10 to 20 uM after 72 hrs by MTT assay. The data set is classed as cell-based.

The source made the active and inactive calls. The rule behind the calls is not given here. A value given as a limit tells only on which side of the number the result lay.

T1 sequence (P33527 whole entry): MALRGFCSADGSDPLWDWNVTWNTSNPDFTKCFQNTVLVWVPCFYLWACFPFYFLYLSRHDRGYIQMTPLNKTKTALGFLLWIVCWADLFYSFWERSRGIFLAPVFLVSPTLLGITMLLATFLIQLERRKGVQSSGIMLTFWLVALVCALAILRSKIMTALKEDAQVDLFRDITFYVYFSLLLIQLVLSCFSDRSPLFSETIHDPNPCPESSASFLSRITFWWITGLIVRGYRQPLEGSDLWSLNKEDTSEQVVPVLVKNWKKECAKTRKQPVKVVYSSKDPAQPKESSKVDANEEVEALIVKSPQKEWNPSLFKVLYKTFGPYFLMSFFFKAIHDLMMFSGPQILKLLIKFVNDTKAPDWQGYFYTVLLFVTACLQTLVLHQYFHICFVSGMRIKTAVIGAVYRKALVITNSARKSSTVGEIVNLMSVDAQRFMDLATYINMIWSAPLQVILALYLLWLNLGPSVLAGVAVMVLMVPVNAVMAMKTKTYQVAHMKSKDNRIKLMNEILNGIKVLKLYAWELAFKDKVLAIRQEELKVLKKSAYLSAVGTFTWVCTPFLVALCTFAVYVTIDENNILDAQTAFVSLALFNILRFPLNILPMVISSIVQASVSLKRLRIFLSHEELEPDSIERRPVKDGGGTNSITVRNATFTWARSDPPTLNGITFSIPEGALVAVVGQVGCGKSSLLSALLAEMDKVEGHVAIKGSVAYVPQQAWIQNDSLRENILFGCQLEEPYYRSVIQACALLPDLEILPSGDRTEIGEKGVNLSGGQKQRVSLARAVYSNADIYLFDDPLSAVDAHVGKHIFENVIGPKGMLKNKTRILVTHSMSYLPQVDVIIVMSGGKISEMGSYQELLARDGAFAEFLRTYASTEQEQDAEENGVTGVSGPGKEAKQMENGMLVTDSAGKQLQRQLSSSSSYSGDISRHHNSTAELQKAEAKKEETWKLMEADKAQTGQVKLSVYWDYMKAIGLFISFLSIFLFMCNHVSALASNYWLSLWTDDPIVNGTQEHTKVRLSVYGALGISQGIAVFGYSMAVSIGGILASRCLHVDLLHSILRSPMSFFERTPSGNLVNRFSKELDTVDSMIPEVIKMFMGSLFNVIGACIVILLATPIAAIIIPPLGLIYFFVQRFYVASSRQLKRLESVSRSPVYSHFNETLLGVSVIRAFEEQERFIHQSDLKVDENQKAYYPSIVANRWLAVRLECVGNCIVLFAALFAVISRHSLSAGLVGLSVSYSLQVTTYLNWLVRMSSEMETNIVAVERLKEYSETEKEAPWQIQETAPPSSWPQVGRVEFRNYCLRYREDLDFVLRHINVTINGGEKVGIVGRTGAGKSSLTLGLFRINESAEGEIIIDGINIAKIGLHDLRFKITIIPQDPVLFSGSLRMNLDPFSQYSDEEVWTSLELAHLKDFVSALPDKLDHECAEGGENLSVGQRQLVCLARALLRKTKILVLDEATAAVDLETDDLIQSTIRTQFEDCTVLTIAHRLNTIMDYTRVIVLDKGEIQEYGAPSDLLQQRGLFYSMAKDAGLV
Sequence of MRP1 (P33527 whole entry): as above

As to `CC[C@@H]1CN(C)[C@H]2Cc3c([nH]c4ccccc34)/C(=N/N=C\c3cccc(Br)c3)C[C@H]1[C@H]2C(=O)OC`, in [1], the “inhibition (INH)” value is reported as “Not Active”. For the same molecule, the concentration giving a half-maximal response (EC50) in the data set on BHK-21 [2] came to 16.5 µM. The inhibition at 0.5 h, 20 µM at MRP1 is 12%; at BCRP (ABCG2) it was -2.4%. Further, the Activity entry with NIH3T3 [3] and in the data set with BHK-21 [4] was “Non-Toxic” each time. Besides, in data set [5], the inhibition was 11.4%. In addition, the “growth inhibition (GI)” value in the data set on NIH3T3 [6] was “Active”. In addition, the “Ratio EC50” value in the data set on BHK-21 [7] is reported as 0.73. Also, in the data set on BHK-21 [8], the inhibition of growth at 20 µM was greater than 90%.
Consider `CC[C@@H]1CN(C)[C@H]2Cc3c([nH]c4ccccc34)/C(=N/N=C\c3ccc(O)c(OC)c3)C[C@H]1[C@H]2C(=O)OC`, for which the results for the “inhibition (INH)” value in [1] and in [10] were “Not Active” and “Dose-dependent effect”, respectively. In addition, the inhibition at 0.5 h, 20 µM at MRP1 was 87.3%; at BCRP (ABCG2), 9%. The Activity result in data set [9] was “Non-Toxic”; with NIH3T3 [3], “Non-Toxic”; in the data set on BHK-21 [4] it was “Non-Toxic”; in data set [12] it was 60%. In data set [10], the IC50 was greater than 1 µM. Moreover, the inhibition result in the data set listed under Homo sapiens [11] is “inactive”. For the same molecule, the inhibition in data set [5] was found to be 24.3%. The “growth inhibition (GI)” value in the data set with NIH3T3 [6] and with BHK-21 [8] was “Active” in each case.
As to `CC[C@H]1CN(C)[C@H]2Cc3c([nH]c4ccccc34)/C(=N/N=C\c3c[nH]c4ccccc34)C[C@H]1[C@H]2C(=O)OC`, the values for the inhibition at 0.5 h, 20 µM at MRP1 and at BCRP (ABCG2) were 70.5% and 4.9%, respectively. The Activity entry with NIH3T3 [3] and in the data set with BHK-21 [4] was “Non-Toxic” in each case. Also, the results for the inhibition (in [5]; in the data set filed under Homo sapiens [13]; in the data set listed under Homo sapiens [14]) were 116%, 73% and 38%, respectively. Moreover, the “growth inhibition (GI)” value in the data set on NIH3T3 [6] was “Active”. In the data set with BHK-21 [8], the inhibition of growth at 20 µM was 90 to 98%.
As for `CC[C@@H]1CN(C)[C@H]2Cc3c([nH]c4ccccc34)/C(=N/N=C\c3ccc(C)cc3)C[C@H]1[C@H]2C(=O)OC`, the inhibition at 0.5 h, 20 µM at MRP1 is 8.8%; on BCRP (ABCG2) it was 1.7%. Besides, the Activity entry in the data set on NIH3T3 [3] and in the data set with BHK-21 [4] was “Non-Toxic” each time. Besides, the inhibition entry in the data set listed under Homo sapiens [15] is “Active”. Moreover, the inhibition in data set [5] was determined as 73.8%. The “growth inhibition (GI)” value with NIH3T3 [6] is “Active”. The inhibition of growth at 20 µM in the data set on BHK-21 [8] is 90 to 98%.
On to `CC[C@@H]1CN(C)[C@H]2Cc3c([nH]c4ccccc34)/C(=N/N=C\C=C\c3ccccc3)C[C@H]1[C@H]2C(=O)OC`, for which the “inhibition (INH)” value in data set [1] was “Not Active”. For the same molecule, the values for the inhibition at 0.5 h, 20 µM on MRP1 and on BCRP (ABCG2) were 10% and -2%, respectively. For the same molecule, the Activity entry in the data set with NIH3T3 [3] and with BHK-21 [4] was “Non-Toxic” in each case. In data set [5], the inhibition turned out to be 26.7%. Moreover, the “growth inhibition (GI)” value in the data set on NIH3T3 [6] was “Active”. For the same molecule, the inhibition of growth at 20 µM with BHK-21 [8] is greater than 90%.
As to `COc1cc2c(cc1OC)CN(CCc1ccc(NC(=O)c3cccc4c(=O)c5cccc(OC)c5[nH]c34)cc1)CC2`, the inhibition in the data set filed under Homo sapiens [16] was found to be 100%.
Regarding `CC[C@@H]1CN(C)[C@H]2Cc3c([nH]c4ccccc34)/C(=N/N=C\c3c[nH]c4ccccc34)C[C@H]1[C@H]2C(=O)OC`, the inhibition at 0.5 h, 20 µM is 50.2% on MRP1 and 4.2% at BCRP (ABCG2). The Activity entry in the data set on NIH3T3 [3] and with BHK-21 [4] was “Non-Toxic” throughout. The inhibition in data set [5] was 102%; in the data set filed under Homo sapiens [13], 70%; in the data set listed under Homo sapiens [14], 18%. In addition, the “growth inhibition (GI)” value in the data set with NIH3T3 [6] was “Active”. Besides, the inhibition of growth at 20 µM in the data set on BHK-21 [8] lay in the range of 90 to 98%.
With `CC[C@H]1CN(C)[C@H]2Cc3c([nH]c4ccccc34)/C(=N/N=C\c3ccc(C)cc3)C[C@H]1[C@H]2C(=O)OC`, the inhibition at 0.5 h, 20 µM is 20.4% at MRP1 and 2.4% at BCRP (ABCG2). The Activity entry with NIH3T3 [3] and with BHK-21 [4] was “Non-Toxic” each time. In addition, in data set [5], the inhibition is 86.1%. Moreover, the “growth inhibition (GI)” value in the data set on NIH3T3 [6] was “Active”. In the data set filed under Homo sapiens [17], the inhibition entry was “Active”. The inhibition of growth at 20 µM in the data set with BHK-21 [8] lay within 90 to 98%.
Turning to `CC[C@H]1CN(C)[C@H]2Cc3c([nH]c4ccccc34)/C(=N/N=C\c3ccc(O)c(OC)c3)C[C@H]1[C@H]2C(=O)OC`, the inhibition at 0.5 h, 20 µM on MRP1 is 80.7%; at BCRP (ABCG2) it was 10.5%. Also, the Activity result in the data set on NIH3T3 [3] and with BHK-21 [4] was “Non-Toxic” throughout. In data set [10], the IC50 was greater than 1 µM. Besides, the “inhibition (INH)” value in data set [10] was “Dose-dependent effect”. Moreover, in [5], the inhibition came out at 38.6%. Also, in the data set with NIH3T3 [6], the “growth inhibition (GI)” value is “Active”. In the data set with BHK-21 [8], the inhibition of growth at 20 µM lay in the range of 90 to 98%.

The EC50 is the concentration needed to bring the measured effect to its halfway point. The inhibition is the relative decrease from the control value, in per cent. In general, IC50 refers to the concentration that gives 50% inhibition.

The values are drawn from ChEMBL document CHEMBL4177736, “Monoterpene indole alkaloid azine derivatives as MDR reversal agents” (Bioorg Med Chem, 2018).
